In the supplement of paper PMC6411743:

Legend:
adenosine triphosphate = compound: Nc1ncnc2c1ncn2[C@@H]1O[C@H](COP(=O)(O)OP(=O)(O)OP(=O)(O)O)[C@@H](O)[C@H]1O [adenosine triphosphate]; assay: pEC50 of ATP-induced change in protein thermal stability (2D-TPP)
How it was run: (§1)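 Crude Jurkat lysate was exposed to five concentrations, vehicle among them, for 10 min at room temperature, then heated for 3 min at 12 temperatures between 42 and 63.9 °C and treated with NP40 and benzonase for 60 min at 4 °C. Soluble protein remaining after ultracentrifugation was measured by TMT LC-MS/MS, and fold changes relative to vehicle at each temperature were median-normalised. pEC50 values come from dose-response fits made per replicate across adjacent temperature pairs, with hits called under permutation-based false discovery rate control. Three independent experiments were run.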

guanosine triphosphate = compound: Nc1nc2c(ncn2[C@@H]2O[C@H](COP(=O)(O)OP(=O)(O)OP(=O)(O)O)[C@@H](O)[C@H]2O)c(=O)[nH]1 [guanosine triphosphate]; assay: pEC50 of GTP-induced change in protein thermal stability (2D-TPP)
How it was run: as §1
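Wherever pEC50 of ATP-induced change in protein thermal stability (2D-TPP) is given: lysate dosed with Na-ATP at 0 0.005 0.05 0.5 and 2 mM.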

Sequence of UniProt Q9P2R7 (Q9P2R7 whole entry): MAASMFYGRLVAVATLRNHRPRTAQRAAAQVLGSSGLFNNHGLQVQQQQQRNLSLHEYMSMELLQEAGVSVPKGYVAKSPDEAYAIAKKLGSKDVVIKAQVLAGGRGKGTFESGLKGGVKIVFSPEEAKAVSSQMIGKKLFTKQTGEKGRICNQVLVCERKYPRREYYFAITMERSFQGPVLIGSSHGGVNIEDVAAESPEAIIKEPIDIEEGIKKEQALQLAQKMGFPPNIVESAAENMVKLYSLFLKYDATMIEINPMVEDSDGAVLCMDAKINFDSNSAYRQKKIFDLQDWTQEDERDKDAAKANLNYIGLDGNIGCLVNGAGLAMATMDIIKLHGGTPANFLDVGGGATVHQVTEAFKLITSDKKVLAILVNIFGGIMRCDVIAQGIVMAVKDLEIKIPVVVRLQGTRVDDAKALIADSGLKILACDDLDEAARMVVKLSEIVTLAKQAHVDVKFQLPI
Sequence of UniProt Q9Y276 (Q9Y276 whole entry): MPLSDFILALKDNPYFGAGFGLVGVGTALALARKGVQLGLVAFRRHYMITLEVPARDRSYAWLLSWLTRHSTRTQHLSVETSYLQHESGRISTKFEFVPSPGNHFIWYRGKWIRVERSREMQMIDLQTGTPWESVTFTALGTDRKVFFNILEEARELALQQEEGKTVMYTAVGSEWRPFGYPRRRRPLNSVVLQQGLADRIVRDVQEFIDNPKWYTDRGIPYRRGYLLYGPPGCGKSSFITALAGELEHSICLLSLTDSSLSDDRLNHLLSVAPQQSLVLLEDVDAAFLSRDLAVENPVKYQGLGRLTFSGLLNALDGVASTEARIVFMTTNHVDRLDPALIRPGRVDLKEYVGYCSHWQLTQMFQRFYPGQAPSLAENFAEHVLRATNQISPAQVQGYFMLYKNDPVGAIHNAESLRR
Sequence of UniProt Q86YS6 (Q86YS6 whole entry): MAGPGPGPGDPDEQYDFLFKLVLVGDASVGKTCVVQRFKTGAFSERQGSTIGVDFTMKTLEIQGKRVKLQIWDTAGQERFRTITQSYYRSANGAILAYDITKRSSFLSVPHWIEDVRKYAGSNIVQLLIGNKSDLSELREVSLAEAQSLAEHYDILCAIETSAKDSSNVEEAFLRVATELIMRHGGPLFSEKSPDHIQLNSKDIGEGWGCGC
Sequence of UniProt P23919 (P23919 whole entry): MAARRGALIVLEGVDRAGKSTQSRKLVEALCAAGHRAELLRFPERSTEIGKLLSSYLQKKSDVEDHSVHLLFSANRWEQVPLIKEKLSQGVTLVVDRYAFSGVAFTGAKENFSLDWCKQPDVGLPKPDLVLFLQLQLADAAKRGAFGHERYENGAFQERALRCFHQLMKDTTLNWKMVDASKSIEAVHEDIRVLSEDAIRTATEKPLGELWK
Sequence of UniProt P33993 (P33993 whole entry): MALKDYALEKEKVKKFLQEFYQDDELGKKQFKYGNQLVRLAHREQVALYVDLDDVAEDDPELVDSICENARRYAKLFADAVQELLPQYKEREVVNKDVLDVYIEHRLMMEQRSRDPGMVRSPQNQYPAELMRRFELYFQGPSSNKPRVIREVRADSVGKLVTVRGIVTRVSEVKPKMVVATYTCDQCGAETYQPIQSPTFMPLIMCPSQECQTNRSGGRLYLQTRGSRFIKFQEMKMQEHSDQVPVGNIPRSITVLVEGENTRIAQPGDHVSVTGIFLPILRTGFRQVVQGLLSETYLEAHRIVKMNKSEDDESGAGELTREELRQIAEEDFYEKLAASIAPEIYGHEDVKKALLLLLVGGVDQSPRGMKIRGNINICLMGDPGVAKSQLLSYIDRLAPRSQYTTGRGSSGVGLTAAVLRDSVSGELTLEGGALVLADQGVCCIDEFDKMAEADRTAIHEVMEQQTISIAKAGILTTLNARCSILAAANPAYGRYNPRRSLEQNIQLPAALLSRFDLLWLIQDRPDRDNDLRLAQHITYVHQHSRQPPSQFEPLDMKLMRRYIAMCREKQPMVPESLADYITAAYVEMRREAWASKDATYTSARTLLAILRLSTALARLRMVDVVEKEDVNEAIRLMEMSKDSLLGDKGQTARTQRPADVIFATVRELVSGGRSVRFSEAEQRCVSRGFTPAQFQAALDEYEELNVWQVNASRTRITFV
Sequence of UniProt Q9Y679 (Q9Y679 whole entry): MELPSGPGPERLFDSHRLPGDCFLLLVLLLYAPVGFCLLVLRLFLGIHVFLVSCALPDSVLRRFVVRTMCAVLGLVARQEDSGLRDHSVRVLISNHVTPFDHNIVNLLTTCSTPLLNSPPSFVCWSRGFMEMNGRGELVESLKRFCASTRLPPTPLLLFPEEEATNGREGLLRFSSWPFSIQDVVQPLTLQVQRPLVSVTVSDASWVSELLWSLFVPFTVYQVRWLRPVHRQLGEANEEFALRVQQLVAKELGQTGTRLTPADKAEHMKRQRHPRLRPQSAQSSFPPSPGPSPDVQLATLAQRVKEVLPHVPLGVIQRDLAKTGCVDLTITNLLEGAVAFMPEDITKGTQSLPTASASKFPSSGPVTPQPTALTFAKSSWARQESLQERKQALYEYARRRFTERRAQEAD
Sequence of UniProt P27707 (P27707 whole entry, looked up): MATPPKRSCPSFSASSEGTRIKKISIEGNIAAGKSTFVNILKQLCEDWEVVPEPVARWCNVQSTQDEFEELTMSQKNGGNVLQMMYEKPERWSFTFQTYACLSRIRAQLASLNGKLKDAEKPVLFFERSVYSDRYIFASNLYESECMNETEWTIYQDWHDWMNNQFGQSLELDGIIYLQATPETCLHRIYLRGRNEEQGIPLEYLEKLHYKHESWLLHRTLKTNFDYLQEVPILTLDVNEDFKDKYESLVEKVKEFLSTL
Sequence of UniProt P62820 (P62820 whole entry): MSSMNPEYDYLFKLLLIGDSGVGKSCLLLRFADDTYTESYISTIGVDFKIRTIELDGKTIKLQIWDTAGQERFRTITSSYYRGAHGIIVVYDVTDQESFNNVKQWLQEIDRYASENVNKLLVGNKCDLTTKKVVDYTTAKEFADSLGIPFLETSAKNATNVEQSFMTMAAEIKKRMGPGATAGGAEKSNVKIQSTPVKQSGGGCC
Sequence of UniProt P16615 (P16615 whole entry): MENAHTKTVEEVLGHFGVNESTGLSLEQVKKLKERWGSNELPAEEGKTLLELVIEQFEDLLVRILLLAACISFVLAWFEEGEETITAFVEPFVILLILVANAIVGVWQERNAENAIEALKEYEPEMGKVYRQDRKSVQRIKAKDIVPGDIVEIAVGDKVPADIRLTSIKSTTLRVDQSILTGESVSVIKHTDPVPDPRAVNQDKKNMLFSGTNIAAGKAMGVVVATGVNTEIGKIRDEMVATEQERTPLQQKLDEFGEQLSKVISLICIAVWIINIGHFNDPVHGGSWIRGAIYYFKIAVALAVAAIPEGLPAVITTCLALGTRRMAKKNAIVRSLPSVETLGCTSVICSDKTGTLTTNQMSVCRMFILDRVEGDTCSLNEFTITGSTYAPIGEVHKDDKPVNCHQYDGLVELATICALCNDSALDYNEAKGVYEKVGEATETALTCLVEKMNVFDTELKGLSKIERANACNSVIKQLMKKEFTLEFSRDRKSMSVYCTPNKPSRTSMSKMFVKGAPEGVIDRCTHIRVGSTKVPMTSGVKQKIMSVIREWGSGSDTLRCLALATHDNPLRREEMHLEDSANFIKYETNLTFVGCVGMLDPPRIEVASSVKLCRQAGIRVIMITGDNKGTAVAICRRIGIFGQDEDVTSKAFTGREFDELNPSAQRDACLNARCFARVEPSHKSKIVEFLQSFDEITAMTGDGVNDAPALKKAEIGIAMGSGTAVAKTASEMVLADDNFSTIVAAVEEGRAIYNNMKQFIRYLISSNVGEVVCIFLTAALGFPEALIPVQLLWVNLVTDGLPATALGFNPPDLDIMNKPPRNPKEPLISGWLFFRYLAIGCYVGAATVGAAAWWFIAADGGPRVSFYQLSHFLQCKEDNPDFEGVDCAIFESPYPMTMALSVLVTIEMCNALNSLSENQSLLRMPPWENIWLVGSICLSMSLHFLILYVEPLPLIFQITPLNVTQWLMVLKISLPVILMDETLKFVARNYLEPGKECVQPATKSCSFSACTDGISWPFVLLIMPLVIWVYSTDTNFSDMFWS
Sequence of UniProt Q6P9H5 (Q6P9H5 whole entry): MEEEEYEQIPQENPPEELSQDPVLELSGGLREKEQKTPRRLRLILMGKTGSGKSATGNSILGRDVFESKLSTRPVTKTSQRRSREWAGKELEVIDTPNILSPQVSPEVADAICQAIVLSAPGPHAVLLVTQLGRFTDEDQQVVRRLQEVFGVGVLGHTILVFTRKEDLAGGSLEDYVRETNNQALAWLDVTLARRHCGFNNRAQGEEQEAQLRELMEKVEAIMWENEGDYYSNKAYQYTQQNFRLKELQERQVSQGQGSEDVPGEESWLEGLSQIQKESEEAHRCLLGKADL
Sequence of UniProt O00429 (O00429 whole entry): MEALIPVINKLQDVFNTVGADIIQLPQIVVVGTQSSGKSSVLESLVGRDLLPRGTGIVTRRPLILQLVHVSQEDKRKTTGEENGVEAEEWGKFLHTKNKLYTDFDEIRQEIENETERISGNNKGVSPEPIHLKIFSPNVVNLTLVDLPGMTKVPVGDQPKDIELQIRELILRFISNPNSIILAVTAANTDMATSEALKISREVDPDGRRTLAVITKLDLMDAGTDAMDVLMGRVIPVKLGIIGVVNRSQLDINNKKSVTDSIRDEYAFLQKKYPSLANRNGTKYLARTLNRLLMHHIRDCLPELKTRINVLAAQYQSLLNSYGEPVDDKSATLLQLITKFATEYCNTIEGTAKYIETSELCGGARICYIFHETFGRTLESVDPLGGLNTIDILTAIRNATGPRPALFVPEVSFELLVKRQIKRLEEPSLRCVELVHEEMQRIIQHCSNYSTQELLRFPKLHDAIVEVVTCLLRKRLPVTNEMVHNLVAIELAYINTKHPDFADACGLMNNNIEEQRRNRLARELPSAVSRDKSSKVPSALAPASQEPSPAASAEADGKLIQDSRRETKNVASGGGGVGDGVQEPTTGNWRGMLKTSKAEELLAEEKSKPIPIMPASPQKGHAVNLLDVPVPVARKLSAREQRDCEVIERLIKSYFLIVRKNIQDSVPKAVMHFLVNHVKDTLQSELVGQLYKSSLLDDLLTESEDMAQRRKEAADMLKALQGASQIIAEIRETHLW

Target | pEC50 (adenosine triphosphate) | pEC50 (guanosine triphosphate)
UniProt P48047 (effect direction: stabilized) | 3.53 | 3.9
PEX1 (effect direction: stabilized) (UniProt O43933) | 3.98 | 3.72
MCM7 (effect direction: stabilized) (UniProt P33993) | 3.42 | 4.14
DCK (effect direction: stabilized) (UniProt P27707) | 3.19 | 3.73
UniProt P45985 (effect direction: stabilized) | 3.79 | 3.78
HSPA4L (effect direction: stabilized) (UniProt O95757) | 3.54 | 3.83
DNM1L (effect direction: stabilized) (UniProt O00429) | 3.38 | 3.83
UniProt P59998 (effect direction: stabilized) | 3.9 | 4.03
MTHFS (effect direction: stabilized) (UniProt P49914) | 3.33 | 3.75
BPNT1 (effect direction: destabilized) (UniProt O95861) | < 2.7 | 3.59
GNL1 (effect direction: stabilized) (UniProt P36915) | 2.8 | 4.04
UniProt P68363 (effect direction: stabilized) | 2.98 | 3.88
UniProt P36542 (effect direction: stabilized) | 4.25 | 4.12
UniProt P08240 (effect direction: stabilized) | 4.01 | 3.81
SUCLG2 (effect direction: stabilized) (UniProt Q96I99) | 3.43 | 3.5
UniProt P62070 (effect direction: stabilized) | 3.42 | 4.08
IARS2 (effect direction: stabilized) (UniProt Q9NSE4) | 4.18 | 3.71
EEF1A1 (effect direction: stabilized) (UniProt P68104) | 4.11 | 4.26
ACSL3 (effect direction: stabilized) (UniProt O95573) | 3.91 | 3.9
RAB39B (effect direction: stabilized) (UniProt Q96DA2) | 3.52 | 4.03
RAB4A (effect direction: stabilized) (UniProt P20338) | 3.45 | 4.52
ANP32B (effect direction: stabilized) (UniProt Q92688) | 2.89 | 3.75
ABCC4 (effect direction: stabilized) (UniProt O15439) | 3.41 | 3.94

Target | pEC50 (adenosine triphosphate) | pEC50 (guanosine triphosphate)
UniProt P17612 (effect direction: stabilized) | 3.82 | 3.72
DHX15 (effect direction: stabilized) (UniProt O43143) | 3.9 | 3.93
HARS2 (effect direction: stabilized) (UniProt P49590) | 4.13 | 3.55
EFTUD2 (effect direction: stabilized) (UniProt Q15029) | 2.76 | 3.61
GMPPA (effect direction: stabilized) (UniProt Q96IJ6) | 3.08 | 3.36
DTYMK (effect direction: stabilized) (UniProt P23919) | 4.17 | 4.06
GMDS (effect direction: stabilized) (UniProt O60547) | 2.72 | 4.02
AK3 (effect direction: stabilized) (UniProt Q9UIJ7) | 3.22 | 3.46
DGKA (effect direction: stabilized) (UniProt P23743) | 3.3 | 3.72
AFG3L2 (effect direction: stabilized) (UniProt Q9Y4W6) | 4.18 | 3.89
ABCF1 (effect direction: stabilized) (UniProt Q8NE71) | 4.2 | 3.96
CSK (effect direction: stabilized) (UniProt P41240) | 3.56 | 4.3
UniProt P61160 (effect direction: stabilized) | 4.25 | 3.99
UniProt P52564 (effect direction: stabilized) | 4 | 3.9
RAB43 (effect direction: stabilized) (UniProt Q86YS6) | 3.55 | 4.47
GSPT1 (effect direction: stabilized) (UniProt P15170) | < 2.7 | 4.01
AUP1 (effect direction: stabilized) (UniProt Q9Y679) | 3.27 | 3.82
VARS (effect direction: stabilized) (UniProt P26640) | 3.57 | 3.79
NSUN2 (effect direction: stabilized) (UniProt Q08J23) | < 2.7 | 3.87
CAMK4 (effect direction: stabilized) (UniProt Q16566) | 3.88 | 3.77
CCT2 (effect direction: stabilized) (UniProt P78371) | 4.34 | 3.56
RAB2B (effect direction: stabilized) (UniProt Q8WUD1) | 3.45 | 4.52
RAB8B (effect direction: stabilized) (UniProt Q92930) | 3.93 | 4.27

Target | pEC50 (adenosine triphosphate) | pEC50 (guanosine triphosphate)
UniProt Q15286 (effect direction: stabilized) | 3.53 | 4.35
UniProt P62820 (effect direction: stabilized) | 3.74 | 4.31
DHX38 (effect direction: stabilized) (UniProt Q92620) | 4.09 | 3.83
SUCLA2 (effect direction: stabilized) (UniProt Q9P2R7) | 3.2 | 3.78
CCDC117 (effect direction: stabilized) (UniProt Q8IWD4) | 3.47 | 3.46
NME4 (effect direction: stabilized) (UniProt O00746) | 4.29 | 4.44
RAB8A (effect direction: stabilized) (UniProt P61006) | 4.15 | 4.51
EHD1 (effect direction: stabilized) (UniProt Q9H4M9) | 3.88 | 4.34
GNAI2 (effect direction: stabilized) (UniProt P04899) | 2.85 | 4.51
UniProt O00442 (effect direction: stabilized) | 4.08 | 4.08
CCT4 (effect direction: stabilized) (UniProt P50991) | 3.07 | 3.65
RUVBL1 (effect direction: stabilized) (UniProt Q9Y265) | 4.34 | 3.67
NDUFA10 (effect direction: stabilized) (UniProt O95299) | 3.91 | 3.81
UniProt P07437 (effect direction: stabilized) | 3.35 | 4.05
HMGCS1 (effect direction: stabilized) (UniProt Q01581) | 3.98 | 3.79
ARPC2 (effect direction: stabilized) (UniProt O15144) | 4.06 | 3.83
ABCB7 (effect direction: stabilized) (UniProt O75027) | 3.49 | 3.82
RHEB (effect direction: stabilized) (UniProt Q15382) | 3.28 | 4.45
BCS1L (effect direction: stabilized) (UniProt Q9Y276) | 4.07 | < 3.3
CSNK2B (effect direction: stabilized) (UniProt P67870) | 3.84 | 4.2
ATP2A2 (effect direction: stabilized) (UniProt P16615) | 3.33 | 4.31
ACTR3 (effect direction: stabilized) (UniProt P61158) | 4.25 | 3.93
GIMAP6 (effect direction: stabilized) (UniProt Q6P9H5) | 4.24 | 3.81
